Test results from PMC8909594, “Direct Interaction of Mitochondrial Cytochrome c Oxidase with Thyroid Hormones: Evidence for Two Binding Sites” (Cells, 2022).
Values joined by “and” are separate entries in the source; they are usually repeats but may differ in a detail not shown here. Equal values may be shown once. “Also recorded” adds a separate entry of the source. Read-outs that look alike come from different tables or passages of the source.

Experiments:
[1] = molecular target: T1, solubilized cytochrome c oxidase (CcO) from bovine heart mitochondria (Bos taurus, UniProt P00396+P68530); test: Oxidase activity of solubilized CcO, oxygen consumption (Clark-type electrode); assay type: biochemical; conditions: for Kd: read-out: Kc, dissociation constant of the DM-CcO complex
T1 construct: Cytochrome c oxidase (CcO) was purified from heart mitochondria of Bos taurus; from tissue; host or cells: bovine heart mitochondria
Text: Preparations. Cytochrome c oxidase (CcO) was purified from heart mitochondria of Bos taurus. […] CcO was isolated according to a modified method of Fowler et al. [21] described previously [22].

[2] = molecular target: solubilized CcO from mitochondria; conditions: read-out: Kc (dissociation constant for DM), cited from earlier work
[3] = tested on: T2, cytochrome c oxidase (CcO); test: Peroxidase activity of CcO (ferrocyanide peroxidation); assay type: biochemical, Bos taurus; conditions: for rate of peroxidase reaction: 0.5 mM hormone, control 0.19 e−/s, error about 10%
T2 construct: Cytochrome c oxidase (CcO) was purified from heart mitochondria of Bos taurus; from tissue; host or cells: bovine heart mitochondria
Procedure: To obtain a redox buffer with Em ≈ 420 mV, equal amounts of ferri- and ferrocyanide were mixed. To facilitate the interaction of ferrocyanide with CcO, 0.2 μM cytochrome c was present.
Peroxidation of ferrocyanide (0.2 mM) was monitored in the presence of 0.6 μM CcO. […] Trace 1, black = control; trace 2, red = the experiment in the presence of 1 mM T4; trace 3, blue = 1 mM T4 added in the course of the experiment, as indicated.

[4] = tested on: mitochondrial CcO; parameters: method as in PMID 8013649; conditions: 0.2 μM enzyme; cited from earlier work
[5] = tested on: T3, xanthine oxidase from bovine milk; test: Superoxide formation by xanthine oxidase oxidizing hypoxanthine (test for superoxide dismutase activity); assay type: biochemical; conditions: hypoxanthine 50 μM, XOx 0.015 units/mL; 500 μM T4; SOD 20 μg/mL
T3 construct: xanthine oxidase from bovine milk; purchased Sigma-Aldrich; host or cells: bovine milk
Text: The conditions were adjusted so that the rate of WST reduction was approximately the same as in panel (A).

[6] = molecular target: T4, CcO in SMP obtained from bovine heart mitochondria (Bos taurus, UniProt P00396+P68530); test: CcO oxidase activity in bovine heart submitochondrial particles (SMP); assay type: biochemical
T4 construct: Then, CcO in the native mitochondrial membrane was investigated; from tissue; host or cells: bovine heart submitochondrial particles
Procedure: Preparation of bovine heart submitochondrial particles (SMP). The heavy fraction of bovine heart mitochondria was suspended in 40 mL of 0.3 M sucrose supplemented with 5 mM MgSO4, 1 mM succinate, 1 mM ATP and 10 mM Hepes, pH 8.0. […] Mitochondrial debris was removed by centrifugation for 12 min at 15,000 rpm (Beckman JA-20, Brea, CA, USA). SMP were precipitated from supernatant at 100,000 g for 1 h, washed by 0.3 M sucrose with 10 mM Hepes, pH 7.5 and precipitated as previously described. The final precipitate was suspended in a small volume of the same buffer and frozen. To determine the CcO concentration in the sample, a small amount of SMP was solubilized in 50 mM Hepes/Tris buffer, pH 7.6 containing 1% DM.

[7] = tested on: T5, oxidized cytochrome c oxidase (CcO); test: Formation of CcO oxoferryl intermediates FI-607 and FII-580 with H2O2 (titration, stopped-flow); assay type: biochemical, Bos taurus
T5 construct: Cytochrome c oxidase (CcO) was purified from heart mitochondria of Bos taurus; from tissue; host or cells: bovine heart mitochondria
Procedure: Stopped-flow experiments were performed using a stopped-flow spectrophotometer (Applied Photophysics SX-20, Leatherhead, UK) operated in the diode array mode, using a 20-μL cell with a 1-cm optical pathway.
Oxoferryl intermediates’ formation was monitored using stopped-flow techniques. CcO in the basic medium, pH 8.1 supplemented with 0.1% DM, 0.05 mM ferricyanide and when necessary, T4 was rapidly mixed with an equal volume of the same buffer containing H2O2.
We carried out such a titration to evaluate the effects of thyroid hormones on the equilibrium of oxoferryl intermediates.
Figure 6 Effect of T4 on the formation of CcO oxoferryl intermediates during the reaction with H2O2. The reaction was followed using a diode array spectrophotometer. […] (A, B) Kinetics of the oxoferryl intermediates’ formation. […] (A) Control; (B) CcO was pre-incubated with 0.5 mM T4 until mixing.

[8] = tested on: cytochrome c oxidase (CcO); test: Catalase activity of CcO (oxygen release from H2O2); conditions: higher hormone concentration (curve 4, 1 mM)
Procedure: The catalase activity of CcO was detected by a Clark-type electrode in the presence of excess hydrogen peroxide, in 30 mM potassium-phosphate buffer, pH 7.1 supplemented with 2 mM EDTA and 0.05% DM, as described in [26].

[9] = tested on: cytochrome c oxidase (electron transfer from heme a to heme a3); test: Level and kinetics of heme a / heme a3 reduction in CcO; conditions: pH 8.0, 5 μM RuAm, 5 mM ascorbate
Procedure: The kinetics of spectral changes were monitored on spectrophotometer SLM Aminco DW-2000 (SLM Instruments, Urbana, IL, USA) in dual-wavelength mode.
The oxidase reaction was carried out using ascorbate (as an electron source) in combination with the redox mediators RuAm and TMPD. The reduction of CcO was monitored spectrophotometrically.
The total reduction level of hemes a and a3 was registered. […] The other conditions were as in panel (A) except that 0.1 mM TMPD was used instead of RuAm.

[10] = molecular target: mitochondrial cytochrome c oxidase (CcO) (Bos taurus, UniProt P00426); test: Superoxide generation by CcO in excess H2O2 (WST-1 reduction)
Procedure: The reaction of superoxide generation catalyzed by CcO in the presence of excess hydrogen peroxide was assayed in the basic medium, pH 7.6 by the classic method [27], monitoring the superoxide dismutase-sensitive reduction of tetrazolium salts to formazan.
Addition of 0.4 µM T4 is indicated. CcO was added up to 0.5 μM to the experimental medium, supplemented with 0.1 mM WST-1. The reaction was initiated by addition of 4 mM H2O2 (indicated by the arrow). […] Conditions of the measurements are as in panel (A).

[11] = molecular target: CcO incorporated into azolectin vesicles (proteoliposomes) (Bos taurus, UniProt P00396+P68530); test: Oxidase activity of CcO in proteoliposomes, oxygen consumption
Procedure: First, the effect of thyroid hormones on CcO incorporated into azolectin vesicles was studied. The activity was assayed in the same way as in solution except for the absence of detergent and presence of protonophore in the medium (see Section 2).

[12] = tested on: T6, CcO in proteoliposomes; test: Ferrocytochrome c oxidation by CcO in proteoliposomes; assay type: biochemical, Bos taurus
T6 construct: Cytochrome c oxidase (CcO) was purified from heart mitochondria of Bos taurus; from tissue; host or cells: bovine heart mitochondria
Procedure: CcO reconstruction into phospholipid vesicles.
Cytochrome c was reduced beforehand by dithionite.
Figure 2 Inhibitory effect of thyroid hormones on the oxidase activity of the membrane-incorporated CcO. […] Proteoliposomes were added to the experimental medium up to 26 nM CcO. The oxidase reaction was initiated by addition of the respiratory substrate. Other details are as in Figure 1B,D. (D) T3-induced inhibition of ferrocytochrome c oxidation by CcO in proteoliposomes. […] Other conditions are as in panel (A) except that proteoliposomes were added to the medium up to 3.25 nM CcO and pre-incubated for 30 min before adding the respiratory substrate. […] Mitochondria were suspended in the experimental medium up to 0.8 mg of protein/mL. Other details are as in Figure 1B,D. (F) Inhibitory effect of T4 on CcO oxidase activity in SMP obtained from bovine heart mitochondria. The conditions were essentially as in panel (E) except that the CcO concentration was 20 nM.

For `CCCCCCCCCCCCO[C@@H]1O[C@H](CO)[C@@H](O[C@H]2O[C@H](CO)[C@@H](O)[C@H](O)[C@H]2O)[C@H](O)[C@H]1O` [DM, dodecyl-maltoside], the Kd ([1]; from competition with T3 (T3=0)) is given as ~1.12 mM, the Kd ([1]; from competition with T4 (T4=0)) is given as ~1.1 mM and the Kd ([2]; from study of CcO inhibition by Triton X-100) is given as 1.2 mM. For the same molecule, the Kd ([2]; from study of CcO inhibition by estradiol) was 1.47 mM and the Kd ([2]; from study of CcO inhibition by testosterone) was 1.3 mM.

In the case of `N[C@@H](Cc1cc(I)c(Oc2ccc(O)cc2)c(I)c1)C(=O)O` [T2, 3,5-diiodo-thyronine], the “rate of peroxidase reaction” value [3] is given as 0.21 e^−/s and the “concentration from which effects of T2 start” value [4] is given as 10^−7 M.

With “superoxide dismutase: superoxide dismutase from bovine erythrocytes, control blocking WST reduction” the “effect on the rate of dye (WST) reduction” value [5] was “completely blocked”.

In the case of `N[C@@H](Cc1cc(I)c(Oc2cc(I)c(O)c(I)c2)c(I)c1)C(=O)O` [T4, L-3,5,3′,5′tetraiodo-thyronine], the “decrease of the rate of oxygen consumption” value ([1]; […] T4, 20 nM CcO) is reported as “approximately two times”, the “extent of inhibition of enzyme activity” value ([1]; lowest tested DM concentrations (0.02% and 0.05%)) is reported as 70–80% and the Ki ([1]; oxygen consumption, pH 7.6, 25 °C, from linear dependence of Ki(app) on [DM] 0.4–10 mM, DM=0, read-out: true inhibition constant Ki (in the absence of DM)) is reported as ~0.1 mM and 0.1 mM. The Ki ([1]; solubilized enzyme, Figure 1C,E, read-out: Ki) was ~0.1 mM, the extent of inhibition [6] was “complete inhibition” and the Ki ([6]; 20 nM CcO) was 2.2 ± 0.2 mM. For the same molecule, the “rate of peroxidase reaction” value [3] was 0.22 e^−/s, the “effect on the rate of ferrocyanide peroxidation” value ([3]; 1 mM T4, 0.6 μM CcO, 4 mM H2O2) was “does not noticeably change; also recorded: complete resistance” and the “deviation of FI-607 (lower) and FII-580 (higher) concentration from control” value ([7]; 0.5 mM T4, 15 s after mixing) was “about 10%”. The “acceleration of formation of FII-580 (form 580)” value ([7]; 0.5 mM hormone) was 23% and 20–25%, the “decrease in the quasi-stationary concentration ratio [FI-607]/[FII-580] vs control” value ([7]; 0.5 mM hormone, titration of oxidized CcO with peroxide) was 15–25% and the “effect on the rate of dye (WST) reduction” value [5] was “does not affect the rate of dye reduction”. For the same molecule, the “suppression of catalase activity” value [8] was 10–20%, the “increase of steady-state level of heme a reduction over control” value (from here on “increase … of heme a reduction over control”) ([9]; 1 mM hormone) was ~ 50% and the Ki [10] was 0.0003 mM. The “drop of the rate of WST-1 reduction (superoxide production)” value ([10]; 0.4 μM T4) was “drops threefold” and the Ki [11] was 0.31 mM.

For `N[C@@H](Cc1cc(I)c(Oc2ccc(O)c(I)c2)c(I)c1)C(=O)O` [T3, L-3,5,3′-triiodide-thyronine], the “time of enzyme activity after which inhibition develops” value ([12]; 0.5 mM T3 (~450 turnovers)) was 10 s, the “decrease in the activity compared to the control” value ([12]; 0.5 mM T3, pre-incubation 30 min, 3.25 nM CcO) was “approximately twofold decrease” and the “increase … of heme a reduction over control” value ([9]; 1 mM hormone) was ~ 75%. For the same molecule, the “increase … of heme a reduction over control” value ([9]; 2 mM hormone) was ~ 115%.
